Source: PubChem BioAssay (NCI)
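Step 1: Grow cells in 96-well plates. Step 2: Expose to compound for 48 hours at 5 concentrations. Step 3: Interpolate endpoints linearly; if unreached, use highest concentration. GI50: concentration for 50% inhibition of growth. At the TGI there is no net growth.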

Legend:
Assay in all cases: inhibition of tumour cell growth, NCI panel, 48 h
A498 renal = tested on: A498 renal
ACHN renal = tested on: ACHN renal
BT-549 breast = tested on: BT-549 breast
CAKI-1 renal = tested on: CAKI-1 renal
CCRF-CEM leukemia = tested on: CCRF-CEM leukemia
DU-145 prostate = tested on: DU-145 prostate
HCC-2998 colon = tested on: HCC-2998 colon
HL-60(TB) leukemia = tested on: HL-60(TB) leukemia
HS 578T breast = tested on: HS 578T breast
HT29 colon = tested on: HT29 colon
K-562 leukemia = tested on: K-562 leukemia
KM12 colon = tested on: KM12 colon
MALME-3M melanoma = tested on: MALME-3M melanoma
MDA-MB-435 = tested on: MDA-MB-435
MOLT-4 leukemia = tested on: MOLT-4 leukemia
NCI-H460 lung = tested on: NCI-H460 lung
OVCAR-3 ovarian = tested on: OVCAR-3 ovarian
OVCAR-5 ovarian = tested on: OVCAR-5 ovarian
RPMI-8226 leukemia = tested on: RPMI-8226 leukemia
SK-MEL-2 melanoma = tested on: SK-MEL-2 melanoma
SK-MEL-5 melanoma = tested on: SK-MEL-5 melanoma
SN12C renal = tested on: SN12C renal
SNB-75 CNS = tested on: SNB-75 CNS
SR leukemia = tested on: SR leukemia
SW-620 colon = tested on: SW-620 colon
T-47D breast = tested on: T-47D breast
TK-10 renal = tested on: TK-10 renal
UO-31 renal = tested on: UO-31 renal
786-0 renal = tested on: 786-0 renal
A549 NSCLC = tested on: A549 NSCLC
COLO 205 colon = tested on: COLO 205 colon
EKVX NSCLC = tested on: EKVX NSCLC
HCT-116 colon = tested on: HCT-116 colon
HCT-15 colon = tested on: HCT-15 colon
HOP-62 NSCLC = tested on: HOP-62 NSCLC
HOP-92 NSCLC = tested on: HOP-92 NSCLC
IGROV1 ovarian = tested on: IGROV1 ovarian
LOX IMVI melanoma = tested on: LOX IMVI melanoma
M14 melanoma = tested on: M14 melanoma
MCF7 breast = tested on: MCF7 breast
MDA-MB-231 breast = tested on: MDA-MB-231 breast
NCI-H226 lung = tested on: NCI-H226 lung
NCI-H522 lung = tested on: NCI-H522 lung
NCI/ADR-RES ovarian = tested on: NCI/ADR-RES ovarian
OVCAR-4 ovarian = tested on: OVCAR-4 ovarian
OVCAR-8 ovarian = tested on: OVCAR-8 ovarian
PC-3 prostate = tested on: PC-3 prostate
RXF 393 renal = tested on: RXF 393 renal
SF-268 CNS = tested on: SF-268 CNS
SF-295 CNS = tested on: SF-295 CNS
SF-539 CNS = tested on: SF-539 CNS
SK-MEL-28 melanoma = tested on: SK-MEL-28 melanoma
SK-OV-3 ovarian = tested on: SK-OV-3 ovarian
SNB-19 CNS = tested on: SNB-19 CNS
U251 CNS = tested on: U251 CNS
UACC-257 melanoma = tested on: UACC-257 melanoma
UACC-62 melanoma = tested on: UACC-62 melanoma

COc1ccc2[nH]cc(/C=N/Nc3ccnc4cc(Cl)ccc34)c2c1
GI50 (A498 renal): 1490 nM | TGI (A498 renal): 2830 nM | GI50 (ACHN renal): 346 nM | TGI (ACHN renal): 1070 nM | GI50 (BT-549 breast): 1680 nM | TGI (BT-549 breast): 3090 nM | GI50 (CAKI-1 renal): 1540 nM | TGI (CAKI-1 renal): 2910 nM | GI50 (CCRF-CEM leukemia): 304 nM | TGI (CCRF-CEM leukemia): 1120 nM | GI50 (DU-145 prostate): 729 nM | TGI (DU-145 prostate): 1980 nM | GI50 (HCC-2998 colon): 1670 nM | TGI (HCC-2998 colon): 3190 nM | GI50 (HL-60(TB) leukemia): 265 nM | TGI (HL-60(TB) leukemia): 859 nM | GI50 (HS 578T breast): 1990 nM | TGI (HS 578T breast): 4810 nM | GI50 (HT29 colon): 219 nM | TGI (HT29 colon): 482 nM | GI50 (K-562 leukemia): 300 nM | TGI (K-562 leukemia): > 100000 nM | GI50 (KM12 colon): 1650 nM | TGI (KM12 colon): 3920 nM | GI50 (MALME-3M melanoma): 1760 nM | TGI (MALME-3M melanoma): 3220 nM | GI50 (MDA-MB-435): 1670 nM | TGI (MDA-MB-435): 3060 nM | GI50 (MOLT-4 leukemia): 265 nM | TGI (MOLT-4 leukemia): 713 nM | GI50 (NCI-H460 lung): 202 nM | TGI (NCI-H460 lung): 409 nM | GI50 (OVCAR-3 ovarian): 1580 nM | TGI (OVCAR-3 ovarian): 3160 nM | GI50 (OVCAR-5 ovarian): 1490 nM | TGI (OVCAR-5 ovarian): 2840 nM | GI50 (RPMI-8226 leukemia): 271 nM | TGI (RPMI-8226 leukemia): 671 nM | GI50 (SK-MEL-2 melanoma): 1830 nM | TGI (SK-MEL-2 melanoma): 3480 nM | GI50 (SK-MEL-5 melanoma): 1650 nM | TGI (SK-MEL-5 melanoma): 3060 nM | GI50 (SN12C renal): 1600 nM | TGI (SN12C renal): 3000 nM | GI50 (SNB-75 CNS): 1560 nM | TGI (SNB-75 CNS): 2930 nM | GI50 (SR leukemia): 171 nM | TGI (SR leukemia): 4140 nM | GI50 (SW-620 colon): 186 nM | TGI (SW-620 colon): 379 nM | GI50 (T-47D breast): 1280 nM | TGI (T-47D breast): 3590 nM | GI50 (TK-10 renal): 1900 nM | TGI (TK-10 renal): 3350 nM | GI50 (UO-31 renal): 1470 nM | TGI (UO-31 renal): 2780 nM

OC1CCN(CCCOc2c3ccccc3nc3c2oc2ccccc23)CC1
GI50 (786-0 renal): 2300 nM | TGI (786-0 renal): 18000 nM | GI50 (A498 renal): 1730 nM | TGI (A498 renal): 3380 nM | GI50 (A549 NSCLC): 2540 nM | TGI (A549 NSCLC): 16400 nM | GI50 (ACHN renal): 800 nM | TGI (ACHN renal): 25200 nM | GI50 (BT-549 breast): 2800 nM | TGI (BT-549 breast): 8880 nM | GI50 (CAKI-1 renal): 1670 nM | TGI (CAKI-1 renal): 12900 nM | GI50 (CCRF-CEM leukemia): 2120 nM | TGI (CCRF-CEM leukemia): 16300 nM | GI50 (COLO 205 colon): 1060 nM | TGI (COLO 205 colon): 2830 nM | GI50 (DU-145 prostate): 3660 nM | TGI (DU-145 prostate): 23100 nM | GI50 (EKVX NSCLC): 2790 nM | TGI (EKVX NSCLC): 12900 nM | GI50 (HCC-2998 colon): 1460 nM | TGI (HCC-2998 colon): 3760 nM | GI50 (HCT-116 colon): 505 nM | TGI (HCT-116 colon): 12300 nM | GI50 (HCT-15 colon): 2020 nM | TGI (HCT-15 colon): 9730 nM | GI50 (HOP-62 NSCLC): 2320 nM | TGI (HOP-62 NSCLC): 11900 nM | GI50 (HOP-92 NSCLC): 853 nM | TGI (HOP-92 NSCLC): 4280 nM | GI50 (HS 578T breast): 2380 nM | TGI (HS 578T breast): 8830 nM | GI50 (HT29 colon): 1100 nM | TGI (HT29 colon): 3650 nM | GI50 (IGROV1 ovarian): 2610 nM | TGI (IGROV1 ovarian): 11300 nM | GI50 (KM12 colon): 2990 nM | TGI (KM12 colon): 49600 nM | GI50 (LOX IMVI melanoma): 626 nM | TGI (LOX IMVI melanoma): 3510 nM | GI50 (M14 melanoma): 2390 nM | TGI (M14 melanoma): 7890 nM | GI50 (MALME-3M melanoma): 1860 nM | TGI (MALME-3M melanoma): 3950 nM | GI50 (MCF7 breast): 2310 nM | TGI (MCF7 breast): 10100 nM | GI50 (MDA-MB-231 breast): 2370 nM | TGI (MDA-MB-231 breast): 11100 nM | GI50 (MDA-MB-435): 2310 nM | TGI (MDA-MB-435): 6790 nM | GI50 (NCI-H226 lung): 1900 nM | TGI (NCI-H226 lung): 4740 nM | GI50 (NCI-H460 lung): 1590 nM | TGI (NCI-H460 lung): 11100 nM | GI50 (NCI-H522 lung): 1570 nM | TGI (NCI-H522 lung): 4380 nM | GI50 (NCI/ADR-RES ovarian): 1030 nM | TGI (NCI/ADR-RES ovarian): 8100 nM | GI50 (OVCAR-3 ovarian): 3610 nM | TGI (OVCAR-3 ovarian): 24900 nM | GI50 (OVCAR-4 ovarian): 2140 nM | TGI (OVCAR-4 ovarian): 8630 nM | GI50 (OVCAR-5 ovarian): 2470 nM | TGI (OVCAR-5 ovarian): 9490 nM | GI50 (OVCAR-8 ovarian): 1810 nM | TGI (OVCAR-8 ovarian): 6710 nM | GI50 (PC-3 prostate): 2120 nM | TGI (PC-3 prostate): 7930 nM | GI50 (RPMI-8226 leukemia): 2470 nM | TGI (RPMI-8226 leukemia): 7460 nM | GI50 (RXF 393 renal): 1320 nM | TGI (RXF 393 renal): 3640 nM | GI50 (SF-268 CNS): 2530 nM | TGI (SF-268 CNS): 14800 nM | GI50 (SF-295 CNS): 2390 nM | TGI (SF-295 CNS): 10500 nM | GI50 (SF-539 CNS): 2020 nM | TGI (SF-539 CNS): 6400 nM | GI50 (SK-MEL-2 melanoma): 1930 nM | TGI (SK-MEL-2 melanoma): 3590 nM | GI50 (SK-MEL-28 melanoma): 1930 nM | TGI (SK-MEL-28 melanoma): 3810 nM | GI50 (SK-MEL-5 melanoma): 1770 nM | TGI (SK-MEL-5 melanoma): 3200 nM | GI50 (SK-OV-3 ovarian): 2560 nM | TGI (SK-OV-3 ovarian): 8700 nM | GI50 (SN12C renal): 1700 nM | TGI (SN12C renal): 13500 nM | GI50 (SNB-19 CNS): 2360 nM | TGI (SNB-19 CNS): 14800 nM | GI50 (SNB-75 CNS): 1860 nM | TGI (SNB-75 CNS): 4300 nM | GI50 (SW-620 colon): 825 nM | TGI (SW-620 colon): 11900 nM | GI50 (T-47D breast): 2510 nM | TGI (T-47D breast): 7270 nM | GI50 (TK-10 renal): 2410 nM | TGI (TK-10 renal): 7730 nM | GI50 (U251 CNS): 2140 nM | TGI (U251 CNS): 12200 nM | GI50 (UACC-257 melanoma): 1830 nM | TGI (UACC-257 melanoma): 3720 nM | GI50 (UACC-62 melanoma): 1860 nM | TGI (UACC-62 melanoma): 4430 nM | GI50 (UO-31 renal): 1180 nM | TGI (UO-31 renal): 3130 nM
